Measurements: patent US20100216795A1, “TNIK INHIBITOR AND THE USE” (priority 2008, published 2010)

Key:
Type in all cases: biochemical
[1] = target: T1, human TNIK (N-terminal segment, TNIK_N) (Homo sapiens, UniProt Q9UKE5); test: TNIK kinase assay (mobility shift); settings: stated in text of Test Example 2
T1 construct: made in house; host or cells: Sf21 insect cells (baculovirus)
Description: A cDNA encoding the N-terminal segment (TNIK_N, residues 1-314) containing the kinase domain of human TNIK (NM_015028.1) was amplified from cDNA mixture synthesized from human tissue (Biochain) by PCR using the following primers: 5′-[…]-3′ ([SEQ ID NO:1]: forward primer, the underlined nucleotides indicates the location of a EheI site); 5′-[…]-3′ ([SEQ ID NO:2]: reverse primer, the underlined nucleotides indicates the location of a NotI site). The cDNA was subcloned into baculovirus transfer vector pFastBac_GSTb that includes protease cleavage site and glutathione S-transferase purification tag (GST-tag). The plasmid was purified and the insertion of the pFastBac_GSTb-TNIK_N was confirmed by DNA sequencing. Then E. coli DH10Bac competent cells were transformed with the plasmid to prepare the recombinant bacmid according to the instructions for the Bac-to-Bac™ baculovirus expression systems (Invitrogen). The Sf9 cells were transfected with the recombinant bacmid containing pFastBac_GSTb-TNIK_N using Cellfectin Reagent (Invitrogen) in SF-900II serum free media (Invitrogen). The viral supernatant was collected from the medium 72 h after transfection. The virus was amplified three times by infecting actively growing Sf9 or Sf21 cells in Grace's insect media (Invitrogen) supplemented with 10% FCS and an antibiotic-antimycotic reagent (Invitrogen) for 72 h at 27° C. in T-flask or roller bottles. The titer of amplified TNIK_N virus was estimated at 2.36×10^8 pfu/ml by using BacPAK™ Baculovirus Rapid Titer kit (Clontech).
Log-phase Sf21 cells (2×10^6 cells/ml) in the Grace's insect media were infected with the recombinant baculovirus at MOI of 3.0 and incubated in roller bottles (250 ml media per bottle) for 72 h at 27° C., after which, the cells were collected by centrifugation, and the cell pellet washed with cold PBS and kept at −80° C. until purification. The following purification procedures were carried out at 4° C. The frozen cells were thawed on ice and lysed in lysis buffer (50 mM Tris-HCl, pH 7.5, 150 mM NaCl, 1% Nonidet P-40, 5 mM DTT, 0.5 mM EDTA, 0.5 mM EGTA) supplemented with 1 mM phenylmethansulfonylfluoride, 2 μg/ml leupeptin, 2 μg/ml aprotinin, 1 mM NaF, 100 μM sodium orthovanadate, and 1 μM cantharidin by sonication. The suspended lysate was cleared by centrifugation at 9000 g for 20 min and the supernatant was incubated for 1 h with glutathione Sepharose beads (GE Healthcare). The beads were suspended in buffer-H (50 mM Tris-HCl, pH 7.5, 1 M NaCl, 1 mM DTT, 0.5 mM EDTA, 0.5 mM EGTA and 0.05% Brij35) and washed with buffer-H followed by buffer-L (50 mM Tris-HCl, pH 7.5, 150 mM NaCl, 1 mM DTT, 0.5 mM EDTA, 0.5 mM EGTA, 0.05% Brij35) in an Econo-pack column (BIO-RAD). The bound TNIK_N was eluted with elution buffer (50 mM Tris-HCl, pH 8.0, 150 mM NaCl, 1 mM DTT, 10% glycerol, 0.5 mM EDTA, 0.5 mM EGTA and 5 mM reduced glutathione). The eluted fractions were collected and determined the protein concentration by Bradford reagent (BIO-RAD). The TNIK_N fractions were pooled and desalted using 10DG column (BIORAD) equilibrated with the storage buffer (50 mM Tris-HCl, pH 7.5, 150 mM NaCl, 1 mM DTT, 10% glycerol, 0.05% Brij35). The purified TNIK_N was characterized by electrophoresis using 4-20% polyacrylamide gels and matrix-assisted laser desorption/ionization reflection time-of-flight (MALDI-TOF) mass spectrometry on a Voyager-DE RP MALDI/TOF (Applied Biosystems). TNIK_N was confirmed by the molecular weight and MASCOT Peptide Mass Fingerprint.
The kinase assays were conducted in a 20 μl volume using 384-well plates (Greiner). The reaction mixture consists of compound or vehicle (1% DMSO), 0.08 ng/μl TNIK_N, 1 μM FITC-labeled substrate peptides, FITC-x-Lys-Tyr-Lys-Thr-Leu-Arg-Gln ([SEQ ID NO.3], x: ε-aminocaproic acid), 20 mM Hepes, pH 7.5, 0.01% Triton X-100, 5 mM MgCl2, 25 μM ATP and 2 mM DTT. As blank, TNIK_N was excluded from the reaction mixture of vehicle (1% DMSO). […]

[2] = target: T2, FGFR1 (Homo sapiens, UniProt P11362); test: Selectivity profiling, QuickScout TK Screening Panel
T2 construct: purchased Carna Biosciences
Protocol: (§1) The inhibitory effects of Compound 1 against 20 tyrosine kinases and 30 serine/threonine kinases were investigated using QuickScout™ TK and STK Screening Panel (Carna Biosciences, Kobe Japan). […] The results reveal that Compound 1 inhibits TNIK_N more potently (IC50; 9 nM) than the other 50 kinases.

[3] = target: T3, LCK (Homo sapiens, UniProt P06239); test: as above
T3 construct: purchased Carna Biosciences
Protocol: as §1

[4] = target: T4, IGF1R (Homo sapiens, UniProt P08069); test: as above
T4 construct: purchased Carna Biosciences
Protocol: as §1

[5] = target: T5, MET (Homo sapiens, UniProt P08581); test: as above
T5 construct: purchased Carna Biosciences
Protocol: as §1

[6] = target: T6, CSK (Homo sapiens, UniProt P41240); test: as above
T6 construct: purchased Carna Biosciences
Protocol: as §1

[7] = target: T7, TIE2 (Homo sapiens, UniProt Q02763); test: as above
T7 construct: purchased Carna Biosciences
Protocol: as §1

[8] = target: T8, ABL (Homo sapiens, UniProt P00519); test: as above
T8 construct: purchased Carna Biosciences
Protocol: as §1

[9] = target: T9, FLT3 (Homo sapiens, UniProt P36888); test: as above
T9 construct: purchased Carna Biosciences
Protocol: as §1

[10] = target: T10, JAK3 (Homo sapiens, UniProt P52333); test: as above
T10 construct: purchased Carna Biosciences
Protocol: as §1

[11] = target: T11, TRKA (Homo sapiens, UniProt P04629); test: as above
T11 construct: purchased Carna Biosciences
Protocol: as §1

[12] = target: T12, KDR (Homo sapiens, UniProt P35968); test: as above
T12 construct: purchased Carna Biosciences
Protocol: as §1

[13] = target: T13, SRC (Homo sapiens, UniProt P12931); test: as above
T13 construct: purchased Carna Biosciences
Protocol: as §1

[14] = target: T14, PDGFRa (Homo sapiens, UniProt P16234); test: as above
T14 construct: purchased Carna Biosciences
Protocol: as §1

T9 sequence (P36888 27-993): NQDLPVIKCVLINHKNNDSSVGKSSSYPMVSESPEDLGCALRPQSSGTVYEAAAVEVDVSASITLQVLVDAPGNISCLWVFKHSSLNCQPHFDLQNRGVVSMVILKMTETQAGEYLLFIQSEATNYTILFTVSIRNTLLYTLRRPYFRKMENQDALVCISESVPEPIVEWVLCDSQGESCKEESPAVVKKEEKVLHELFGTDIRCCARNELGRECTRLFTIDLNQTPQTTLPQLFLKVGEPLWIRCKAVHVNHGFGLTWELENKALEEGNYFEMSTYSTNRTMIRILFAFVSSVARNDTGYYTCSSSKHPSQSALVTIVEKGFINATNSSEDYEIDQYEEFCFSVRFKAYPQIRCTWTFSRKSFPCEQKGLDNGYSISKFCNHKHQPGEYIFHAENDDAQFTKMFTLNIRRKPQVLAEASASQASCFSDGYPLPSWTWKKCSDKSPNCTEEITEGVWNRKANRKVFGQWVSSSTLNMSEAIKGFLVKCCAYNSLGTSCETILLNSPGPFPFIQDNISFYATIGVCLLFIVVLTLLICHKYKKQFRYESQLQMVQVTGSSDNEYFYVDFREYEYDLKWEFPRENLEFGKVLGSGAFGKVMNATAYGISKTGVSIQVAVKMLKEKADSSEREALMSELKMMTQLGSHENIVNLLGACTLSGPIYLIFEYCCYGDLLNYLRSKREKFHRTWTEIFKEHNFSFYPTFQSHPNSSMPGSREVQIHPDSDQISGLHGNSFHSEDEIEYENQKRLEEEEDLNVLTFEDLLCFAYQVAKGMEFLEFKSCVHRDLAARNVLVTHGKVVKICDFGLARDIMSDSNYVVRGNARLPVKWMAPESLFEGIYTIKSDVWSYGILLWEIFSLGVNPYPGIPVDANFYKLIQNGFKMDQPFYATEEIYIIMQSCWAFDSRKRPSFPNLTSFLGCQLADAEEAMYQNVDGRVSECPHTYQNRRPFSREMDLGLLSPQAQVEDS
T10 sequence (P52333 whole entry): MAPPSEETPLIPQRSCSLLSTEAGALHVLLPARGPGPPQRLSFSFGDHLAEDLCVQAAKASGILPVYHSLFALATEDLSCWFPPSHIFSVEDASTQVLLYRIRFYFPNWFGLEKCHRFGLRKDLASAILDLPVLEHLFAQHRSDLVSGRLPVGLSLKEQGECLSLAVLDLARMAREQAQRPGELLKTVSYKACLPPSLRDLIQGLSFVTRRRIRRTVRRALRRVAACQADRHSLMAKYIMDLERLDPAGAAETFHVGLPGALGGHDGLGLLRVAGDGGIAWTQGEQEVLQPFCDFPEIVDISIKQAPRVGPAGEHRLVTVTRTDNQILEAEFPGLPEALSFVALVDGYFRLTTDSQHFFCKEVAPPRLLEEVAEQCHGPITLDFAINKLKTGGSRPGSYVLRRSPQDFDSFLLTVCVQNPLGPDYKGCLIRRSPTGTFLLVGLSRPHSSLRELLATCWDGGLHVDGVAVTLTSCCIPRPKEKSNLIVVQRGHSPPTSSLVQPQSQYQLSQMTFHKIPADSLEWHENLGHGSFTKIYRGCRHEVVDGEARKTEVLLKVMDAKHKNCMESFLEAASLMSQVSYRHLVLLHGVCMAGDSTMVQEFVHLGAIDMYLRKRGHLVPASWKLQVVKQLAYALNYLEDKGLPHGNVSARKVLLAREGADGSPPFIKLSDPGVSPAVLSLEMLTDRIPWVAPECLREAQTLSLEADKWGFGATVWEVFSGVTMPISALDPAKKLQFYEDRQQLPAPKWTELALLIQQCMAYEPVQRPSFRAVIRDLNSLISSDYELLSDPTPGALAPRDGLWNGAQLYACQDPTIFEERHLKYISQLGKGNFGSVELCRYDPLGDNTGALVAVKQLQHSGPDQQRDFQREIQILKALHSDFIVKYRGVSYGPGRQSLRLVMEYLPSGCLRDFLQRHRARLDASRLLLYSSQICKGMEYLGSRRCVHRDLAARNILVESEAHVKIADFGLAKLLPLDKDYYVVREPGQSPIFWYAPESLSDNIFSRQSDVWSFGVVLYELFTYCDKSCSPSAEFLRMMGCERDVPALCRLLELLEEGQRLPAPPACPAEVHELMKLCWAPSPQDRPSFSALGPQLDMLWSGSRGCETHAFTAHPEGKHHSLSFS
T6 sequence (P41240 whole entry): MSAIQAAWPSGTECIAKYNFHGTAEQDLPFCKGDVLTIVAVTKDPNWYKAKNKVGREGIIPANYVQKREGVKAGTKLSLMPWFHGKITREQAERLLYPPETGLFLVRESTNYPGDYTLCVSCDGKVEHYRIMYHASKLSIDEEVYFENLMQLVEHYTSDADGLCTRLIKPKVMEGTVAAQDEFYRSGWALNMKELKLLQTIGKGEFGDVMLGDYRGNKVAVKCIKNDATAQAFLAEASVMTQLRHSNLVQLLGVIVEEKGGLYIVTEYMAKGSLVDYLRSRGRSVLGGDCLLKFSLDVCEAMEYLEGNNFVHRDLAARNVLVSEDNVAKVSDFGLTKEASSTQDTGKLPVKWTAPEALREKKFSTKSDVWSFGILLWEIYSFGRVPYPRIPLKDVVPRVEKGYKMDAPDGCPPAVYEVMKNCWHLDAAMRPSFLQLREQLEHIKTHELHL
T2 sequence (P11362 22-822): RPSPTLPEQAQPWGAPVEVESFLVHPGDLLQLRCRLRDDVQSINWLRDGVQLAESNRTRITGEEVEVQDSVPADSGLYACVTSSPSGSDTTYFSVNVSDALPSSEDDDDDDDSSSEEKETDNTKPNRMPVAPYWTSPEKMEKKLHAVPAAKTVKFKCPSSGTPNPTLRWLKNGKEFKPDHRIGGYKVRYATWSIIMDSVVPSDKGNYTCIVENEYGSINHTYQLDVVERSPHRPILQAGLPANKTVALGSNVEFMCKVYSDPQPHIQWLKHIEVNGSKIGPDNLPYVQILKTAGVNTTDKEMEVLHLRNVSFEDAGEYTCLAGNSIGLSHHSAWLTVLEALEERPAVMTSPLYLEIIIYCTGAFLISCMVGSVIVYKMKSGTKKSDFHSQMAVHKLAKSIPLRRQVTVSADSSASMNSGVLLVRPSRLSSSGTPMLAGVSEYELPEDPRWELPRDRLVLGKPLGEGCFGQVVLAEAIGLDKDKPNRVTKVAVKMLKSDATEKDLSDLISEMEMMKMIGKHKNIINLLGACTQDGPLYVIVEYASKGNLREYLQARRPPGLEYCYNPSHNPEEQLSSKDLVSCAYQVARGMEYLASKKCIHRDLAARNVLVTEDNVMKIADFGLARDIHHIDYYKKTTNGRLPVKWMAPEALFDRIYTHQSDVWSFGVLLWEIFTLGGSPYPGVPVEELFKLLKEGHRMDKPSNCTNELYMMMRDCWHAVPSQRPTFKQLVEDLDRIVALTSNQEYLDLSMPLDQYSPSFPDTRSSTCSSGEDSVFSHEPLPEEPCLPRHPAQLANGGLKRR
T5 sequence (P08581 25-1390): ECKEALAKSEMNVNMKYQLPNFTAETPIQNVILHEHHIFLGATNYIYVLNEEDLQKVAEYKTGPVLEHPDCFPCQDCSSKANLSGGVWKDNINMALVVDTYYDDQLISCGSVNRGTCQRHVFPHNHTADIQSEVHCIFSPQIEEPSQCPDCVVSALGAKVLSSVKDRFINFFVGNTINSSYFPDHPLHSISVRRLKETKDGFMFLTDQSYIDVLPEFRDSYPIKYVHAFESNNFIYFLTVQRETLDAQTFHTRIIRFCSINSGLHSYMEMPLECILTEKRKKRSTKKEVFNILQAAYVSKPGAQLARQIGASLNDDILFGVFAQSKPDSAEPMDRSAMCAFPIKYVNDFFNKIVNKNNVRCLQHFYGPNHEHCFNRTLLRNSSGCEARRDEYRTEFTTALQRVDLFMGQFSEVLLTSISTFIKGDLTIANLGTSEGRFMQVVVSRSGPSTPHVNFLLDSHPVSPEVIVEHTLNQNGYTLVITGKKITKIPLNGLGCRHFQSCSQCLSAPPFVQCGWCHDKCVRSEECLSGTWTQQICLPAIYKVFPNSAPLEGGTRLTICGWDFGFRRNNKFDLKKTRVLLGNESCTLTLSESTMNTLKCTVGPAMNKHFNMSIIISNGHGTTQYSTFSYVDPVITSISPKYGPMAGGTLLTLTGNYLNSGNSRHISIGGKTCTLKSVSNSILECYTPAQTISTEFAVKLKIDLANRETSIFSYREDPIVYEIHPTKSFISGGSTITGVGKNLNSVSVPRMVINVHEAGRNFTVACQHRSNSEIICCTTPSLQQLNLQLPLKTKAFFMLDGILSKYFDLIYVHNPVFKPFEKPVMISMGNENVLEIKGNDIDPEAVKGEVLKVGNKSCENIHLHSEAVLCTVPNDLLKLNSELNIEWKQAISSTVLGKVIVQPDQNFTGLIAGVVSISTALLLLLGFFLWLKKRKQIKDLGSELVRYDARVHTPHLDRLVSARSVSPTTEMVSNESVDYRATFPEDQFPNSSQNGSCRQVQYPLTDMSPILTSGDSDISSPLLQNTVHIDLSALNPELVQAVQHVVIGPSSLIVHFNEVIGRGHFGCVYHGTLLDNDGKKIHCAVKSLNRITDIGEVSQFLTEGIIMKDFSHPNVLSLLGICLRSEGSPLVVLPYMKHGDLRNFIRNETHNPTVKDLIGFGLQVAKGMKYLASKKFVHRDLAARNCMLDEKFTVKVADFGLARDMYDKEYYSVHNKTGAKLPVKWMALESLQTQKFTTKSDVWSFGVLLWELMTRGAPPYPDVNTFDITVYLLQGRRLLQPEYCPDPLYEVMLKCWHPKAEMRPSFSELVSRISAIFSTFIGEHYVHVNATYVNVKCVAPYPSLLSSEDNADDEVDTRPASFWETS
T1 sequence (Q9UKE5 1-314): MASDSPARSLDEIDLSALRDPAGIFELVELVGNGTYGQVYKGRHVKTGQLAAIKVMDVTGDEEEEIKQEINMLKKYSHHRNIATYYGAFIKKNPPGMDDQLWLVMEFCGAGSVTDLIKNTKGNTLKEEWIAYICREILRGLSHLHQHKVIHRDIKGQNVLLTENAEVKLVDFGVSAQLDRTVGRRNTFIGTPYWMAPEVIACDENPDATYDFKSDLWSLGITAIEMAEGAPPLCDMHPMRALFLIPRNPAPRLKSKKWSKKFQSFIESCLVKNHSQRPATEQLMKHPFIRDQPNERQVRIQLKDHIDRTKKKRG

**Q.** Which results are given for `CC(=O)Nc1ccc(C(=O)Nc2sc(Nc3ccccc3)nc2C(N)=O)cc1` [Compound 1, 5-(4-acetamidobenzamido)-2-(phenylamino)thiazole-4-carboxamide]?
**A.** IC50 [1]: 9 nM; IC50 [2]: > 300 nM; IC50 [3]: > 300 nM; IC50 [4]: > 300 nM; IC50 [5]: > 300 nM; IC50 [6]: > 300 nM; IC50 [7]: > 300 nM; IC50 [8]: 290 nM; IC50 [9]: 95 nM; IC50 [10]: > 300 nM; IC50 [11]: > 300 nM; IC50 [12]: 59 nM; IC50 [13]: > 300 nM; IC50 [14]: 150 nM
